#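 Compound exposure: 48 hours, 5 concentrations, 96-well plates. Abbreviation: GI50, concentration required for 50% inhibition of growth.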 Activity calls are given as the source filed them. No stated cut-off is given here; in the data, active = GI50 up to about 1.1 µM and inactive = higher.
# Assays:
# Test in all cases: DTP human tumour cell line panel, 48 h
# NCI-H226 = system: NCI-H226
# HCT-116 = system: HCT-116
# SK-MEL-28 = system: SK-MEL-28
# EKVX = system: EKVX
# A498 = system: A498
# OVCAR-4 = system: OVCAR-4
# UO-31 = system: UO-31
# ACHN = system: ACHN
# SNB-75 = system: SNB-75
# PC-3 = system: PC-3
# LOX IMVI = system: LOX IMVI
# HOP-62 = system: HOP-62
# HT-29 = system: HT-29
# MOLT-4 = system: MOLT-4
# OVCAR-5 = system: OVCAR-5
# HCT-15 = system: HCT-15
# BT-549 = system: BT-549
# MDA-N = system: MDA-N
# SK-OV-3 = system: SK-OV-3
# SW-620 = system: SW-620
# SF-295 = system: SF-295
# TK-10 = system: TK-10
# SK-MEL-5 = system: SK-MEL-5
# U-251 = system: U-251
# OVCAR-3 = system: OVCAR-3
# SK-MEL-2 = system: SK-MEL-2
# MDA-MB-435 = system: MDA-MB-435
# NCI-H460 = system: NCI-H460
# Malme-3M = system: Malme-3M
# SNB-19 = system: SNB-19
# SR = system: SR
# MCF7 = system: MCF7
# Hs-578T = system: Hs-578T
# IGROV-1 = system: IGROV-1
# HCC 2998 = system: HCC 2998
# SF-539 = system: SF-539
# UACC-257 = system: UACC-257
# CAKI-1 = system: CAKI-1
# NCI-H23 = system: NCI-H23
# SF-268 = system: SF-268
# UACC-62 = system: UACC-62
# T47D = system: T47D
# 786-0 = system: 786-0
# KM12 = system: KM12
# NCI/ADR-RES = system: NCI/ADR-RES
# DU-145 = system: DU-145
# MDA-MB-231 = system: MDA-MB-231
# COLO 205 = system: COLO 205
# OVCAR-8 = system: OVCAR-8
# A549 = system: A549
# RXF 393 = system: RXF 393
# CCRF-CEM = system: CCRF-CEM
# NCI-H522 = system: NCI-H522
# M14 = system: M14
# SN12C = system: SN12C
# HOP-92 = system: HOP-92
# RPMI-8226 = system: RPMI-8226
# HL-60 = system: HL-60
structure (smiles),measurement,setting,value
COc1ccc(NC(=O)C(=O)Cc2nc3ccc(C(=O)c4ccccc4)cc3nc2O)c([N+](=O)[O-])c1,GI50,NCI-H226,11.5 µM (inactive)
same,GI50,HCT-116,28.1 µM (inactive)
same,GI50,SK-MEL-28,25.8 µM (inactive)
same,GI50,EKVX,28.3 µM (inactive)
same,GI50,A498,16.6 µM (inactive)
same,GI50,OVCAR-4,43.7 µM (inactive)
same,GI50,UO-31,18.2 µM (inactive)
same,GI50,ACHN,43.6 µM (inactive)
same,GI50,SNB-75,17.7 µM (inactive)
same,GI50,PC-3,18.5 µM (inactive)
same,GI50,LOX IMVI,25.2 µM (inactive)
same,GI50,HOP-62,34.6 µM (inactive)
same,GI50,HT-29,14.9 µM (inactive)
same,GI50,MOLT-4,17.6 µM (inactive)
same,GI50,OVCAR-5,> 100 µM (inactive)
same,GI50,HCT-15,34 µM
same,GI50,BT-549,26.9 µM (inactive)
same,GI50,MDA-N,23.4 µM (inactive)
same,GI50,SK-OV-3,52 µM (inactive)
same,GI50,SW-620,19.1 µM (inactive)
same,GI50,SF-295,31.8 µM (inactive)
same,GI50,TK-10,24.9 µM (inactive)
same,GI50,SK-MEL-5,22.6 µM (inactive)
same,GI50,U-251,41.9 µM (inactive)
same,GI50,OVCAR-3,22.5 µM (inactive)
same,GI50,SK-MEL-2,55.1 µM (inactive)
same,GI50,MDA-MB-435,12.1 µM (inactive)
same,GI50,NCI-H460,32.1 µM (inactive)
same,GI50,Malme-3M,53.6 µM (inactive)
same,GI50,SNB-19,62.8 µM (inactive)
same,GI50,SR,18.3 µM (inactive)
same,GI50,MCF7,41.6 µM (inactive)
same,GI50,Hs-578T,> 100 µM (inactive)
same,GI50,IGROV-1,17.6 µM (inactive)
same,GI50,HCC 2998,29.8 µM (inactive)
same,GI50,SF-539,33 µM (inactive)
same,GI50,UACC-257,22.6 µM (inactive)
same,GI50,CAKI-1,14.9 µM (inactive)
same,GI50,NCI-H23,20.5 µM (inactive)
same,GI50,SF-268,34.8 µM (inactive)
same,GI50,UACC-62,21.3 µM (inactive)
same,GI50,T47D,17.2 µM (inactive)
same,GI50,786-0,39.1 µM (inactive)
same,GI50,KM12,6.93 µM (inactive)
same,GI50,NCI/ADR-RES,11.5 µM (inactive)
same,GI50,DU-145,27.5 µM (inactive)
same,GI50,MDA-MB-231,23 µM (inactive)
same,GI50,COLO 205,16 µM (inactive)
same,GI50,OVCAR-8,18.8 µM (inactive)
same,GI50,A549,47.1 µM (inactive)
same,GI50,RXF 393,23.1 µM (inactive)
same,GI50,CCRF-CEM,28.2 µM (inactive)
same,GI50,NCI-H522,12.8 µM (inactive)
same,GI50,M14,35.6 µM (inactive)
same,GI50,SN12C,35.7 µM (inactive)
same,GI50,HOP-92,10.8 µM (inactive)
C=CC[C@H](C)CCC(=O)N1[C@H]2CC3CC[C@@]2(CS1(=O)=O)C3(C)C,GI50,NCI-H226,51.5 µM (inactive)
same,GI50,HCT-116,48 µM (inactive)
same,GI50,SK-MEL-28,> 100 µM (inactive)
same,GI50,EKVX,51.1 µM (inactive)
same,GI50,A498,> 100 µM (inactive)
same,GI50,OVCAR-4,39.5 µM (inactive)
same,GI50,UO-31,40.7 µM (inactive)
same,GI50,ACHN,40.7 µM (inactive)
same,GI50,PC-3,40.3 µM (inactive)
same,GI50,LOX IMVI,30.8 µM (inactive)
same,GI50,HOP-62,> 100 µM (inactive)
same,GI50,HT-29,18.8 µM (inactive)
same,GI50,MOLT-4,17.3 µM (inactive)
same,GI50,OVCAR-5,> 100 µM (inactive)
same,GI50,HCT-15,25.5 µM
same,GI50,BT-549,78.7 µM (inactive)
same,GI50,MDA-N,79.8 µM (inactive)
same,GI50,SK-OV-3,> 100 µM (inactive)
same,GI50,SW-620,79.8 µM (inactive)
same,GI50,SF-295,45.2 µM (inactive)
same,GI50,TK-10,> 100 µM (inactive)
same,GI50,SK-MEL-5,21.5 µM (inactive)
same,GI50,U-251,56.1 µM (inactive)
same,GI50,SK-MEL-2,50.2 µM (inactive)
same,GI50,MDA-MB-435,47.2 µM (inactive)
same,GI50,NCI-H460,30.5 µM (inactive)
same,GI50,Malme-3M,46.8 µM (inactive)
same,GI50,SNB-19,87.9 µM (inactive)
same,GI50,SR,31.5 µM (inactive)
same,GI50,MCF7,33.9 µM (inactive)
same,GI50,Hs-578T,30.6 µM (inactive)
same,GI50,IGROV-1,> 100 µM (inactive)
same,GI50,HCC 2998,49.2 µM (inactive)
same,GI50,UACC-257,66.1 µM (inactive)
same,GI50,CAKI-1,80.4 µM (inactive)
same,GI50,NCI-H23,22.7 µM (inactive)
same,GI50,SF-268,41.7 µM (inactive)
same,GI50,UACC-62,> 100 µM (inactive)
same,GI50,T47D,42.6 µM (inactive)
same,GI50,786-0,50.6 µM (inactive)
same,GI50,KM12,39.3 µM (inactive)
same,GI50,NCI/ADR-RES,44.2 µM (inactive)
same,GI50,DU-145,> 100 µM (inactive)
same,GI50,MDA-MB-231,> 100 µM (inactive)
same,GI50,COLO 205,34.3 µM (inactive)
same,GI50,OVCAR-8,45.4 µM (inactive)
same,GI50,RPMI-8226,39.9 µM (inactive)
same,GI50,A549,39.8 µM (inactive)
same,GI50,RXF 393,49 µM (inactive)
same,GI50,CCRF-CEM,18.7 µM (inactive)
same,GI50,NCI-H522,30.3 µM (inactive)
same,GI50,M14,35.6 µM (inactive)
same,GI50,SN12C,85.5 µM (inactive)
same,GI50,HL-60,25.1 µM (inactive)
same,GI50,HOP-92,> 100 µM (inactive)

# Source: ChEMBL document CHEMBL1201862, “PubChem BioAssay data set” (2004)
